Columns and labels:
PANC-1 cancer cells [1] = test: Photocontrolled staining of cell nuclei by released PI, confocal microscopy; type: cell-based, human; details: free PI not loaded into the particles
Method: FIGS. 8A-8C show confocal microscope images of the photocontrolled staining of the nuclei of PANC-1 cancer cells. Plasma membrane impermeable propidium iodide (PI) molecules were loaded in the pores of LAMS and the dye loaded particles were incubated with the cells for 3 hours in the dark. The cells were then exposed to the activation beam for 1 to 10 min. After further incubation in the dark for 10 min, the cells were examined with confocal microscopy ([…]) FIG. 8A. Cells incubated with the PI-loaded LAMS and illuminated for 0 (a), 1 (b), 3 (c), or 5 min (f) under a constant ˜0.2 W/cm^2, 413 nm light or with different light intensities (˜0.01 (d) or ˜0.1 W/cm^2 (e) for 5 min at a 413 nm light). FIG. 8B. PANC-1 cells incubated with the PI-loaded LAMS (g), free PI molecules (h), or empty LAMS (i) were kept in the dark and exposed to a 413 nm light. FIG. 8C. Cells incubated with the PI-loaded LAMS were illuminated with ˜0.2 W/cm^2, 676 nm light for 0 (j), 1 (k) or 5 min (l). Scale bar: 30 μm.
Based on the successful operation of the impeller in water, in vitro studies were carried out on two human cancer cell lines (PANC-1 and SW480). To detect the photo-responsive behavior of the impellers inside of cells, a membrane-impermeable dye, PI was chosen as the fluorescent probe molecule and loaded into the particles following the same procedure as that used for the Rhodamine B loading. […]

PANC-1 cancer cells [2] = test: Cell death assay, propidium iodide/Hoechst 33342 double-staining, confocal imaging; type: cell-based, human; details: CPT suspended in PBS, not in particles
Method: FIGS. 9A-9C show light-triggered delivery of the anticancer drug camptothecin (CPT) inside PANC-1 cancer cells to induce apoptosis according to an embodiment of the current invention, CPT molecules were loaded into the pores of the LAMS and a homogeneous suspension of the CPT-loaded particles (10 μg/ml) was added to the cells which were incubated in Lab-Tek chamber slides for 3 hrs in dark. The cells were then irradiated under ˜0.1 W/cm^2, 413 nm light for 1 to 10 min, again incubated in the dark for 48 hours, and double-stained with propidium iodide/Hoechst 33342 solution (1:1). FIG. 9A. CPT-loaded particles were incubated with cancer cells and illuminated for 1 (a), 3 (b), 5 (c) or 10 min (d, e, f). FIG. 9B. […]
Cell Death Assay: Cell death was also examined by using the propidium iodide and Hoechst 33342 double-staining method. The cells incubated on a Lab-Tek chamber slide system were stained with propidium iodide/Hoechst 33342 (1:1) for 5 min after treatment with CPT-loaded LAMS or free LAMS followed by light irradiation, and then examined with fluorescence microscopy. […] The absorbance of each well was measured at 450 nm with a plate reader. Since the absorbance is proportional to the number of viable cells in the medium, the viable cell number was determined by using a previously prepared calibration curve (Dojindo Co.).

| SMILES | cell staining (cell entry) (PANC-1 cancer cells [1]) | cell killing (PANC-1 cancer cells [2]) |
| --- | --- | --- |
| CC[N+](C)(CC)CCC[n+]1c(-c2ccccc2)c2cc(N)ccc2c2ccc(N)cc21.[I-].[I-] [PI, propidium iodide] | cell staining did not occur | – |
| CC[C@@]1(O)C(=O)OCc2c1cc1n(c2=O)Cc2cc3ccccc3nc2-1 [CPT, camptothecin] | – | did not kill the cells |
